Where only a bound is given, the exact number is not on record here.

The target of the experiment is T1, MR (Homo sapiens, UniProt P08235).
T1 construct: expressed in transfected cells; host or cells: Huh7 human liver cells, transient transfection
T1 sequence (P08235 726-964 limits assumed): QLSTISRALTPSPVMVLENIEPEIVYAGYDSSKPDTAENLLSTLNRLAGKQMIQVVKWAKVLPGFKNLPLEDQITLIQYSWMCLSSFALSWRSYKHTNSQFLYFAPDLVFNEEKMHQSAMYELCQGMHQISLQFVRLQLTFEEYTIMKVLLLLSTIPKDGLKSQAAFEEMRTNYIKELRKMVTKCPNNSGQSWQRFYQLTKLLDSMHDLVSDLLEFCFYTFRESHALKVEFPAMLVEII
In words: Cell-Based Reporter Assay (Gal4 DBD-MR LBD luciferase reporter, antagonist mode).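 Also: cells co-transfected with a Gal4 response element luciferase plasmid, compound exposure overnight before lysis and luminescence counting, IC50 reflects reduced aldosterone-stimulated reporter signal.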 As to conditions: antagonist mode vs aldosterone at EC80; transfected human liver cells (Huh7); luciferase readout; Examples 3, 6, 12 and 13 tested in analogous format with minor variations. A general note: In a reporter assay the amount or activity of a reporter protein is the signal.
Usually IC50 stands for the concentration that inhibits the measured activity by half. `COC(=O)c1ccc(C2=NN(c3ccc(C#N)c(C)c3)C(C3CCCC3)C2)nc1OC` (stereo not drawn) [Example 1, Methyl 6-(1-(4-cyano-3-methylphenyl)-5-cyclopentyl-4,5-dihydro-1H-pyrazol-3-yl)-2-methoxynicotinate] gave an IC50 of 34.6 nM. The figure for `COC(=O)c1ccc(C2=NN(c3ccc(C#N)c(C)c3)[C@@H](C3CCCC3)C2)nc1OC` [Example 2] is 9.2 nM; for `COc1cc(N2N=C(c3ccc(C(=O)O)c(OC)n3)CC2C2CCCC2)ccc1C#N` (stereo not drawn) [Example 6, 6-[1-(4-cyano-3-methoxy-phenyl)-5-cyclopentyl-4,5-dihydro-1H-pyrazol-3-yl]-2-methoxy-nicotinic acid] it is 9 nM; for `COc1cc(C2=NN(c3ccc(C#N)c(Cl)c3)[C@@H](C3CCCC3)C2)ncc1C(=O)O` [Example 13, (R)-6-(1-(3-chloro-4-cyanophenyl)-5-cyclopentyl-4,5-dihydro-1H-pyrazol-3-yl)-4-methoxynicotinic acid] it is 2000 nM. To `COC(=O)c1ccc(C2=NN(c3ccc(C#N)c(C)n3)[C@@H](C3CCCC3)C2)cc1` [Example 14, (R)-methyl 4-(1-(5-cyano-6-methylpyridin-2-yl)-5-cyclopentyl-4,5-dihydro-1H-pyrazol-3-yl)benzoate] belongs above 2260 nM. To `Cc1nc(N2N=C(c3ccc(C(N)=O)cc3)C[C@@H]2C2CCCC2)ccc1C#N` [Example 16, (R)-4-(1-(5-cyano-6-methylpyridin-2-yl)-5-cyclopentyl-4,5-dihydro-1H-pyrazol-3-yl)benzamide] belongs 13.4 nM.

Compound `Cc1nc(N2N=C(c3ccc(S(C)(=O)=O)cc3)C[C@@H]2C2CCCC2)ccc1C#N` [Example 17, (R)-6-(5-cyclopentyl-3-(4-(methylsulfonyl)phenyl)-4,5-dihydro-1H-pyrazol-1-yl)-2-methylnicotinonitrile] registered an IC50 of 8.4 nM. The compound `Cc1nc(N2N=C(c3ccc4ncn(C)c(=O)c4c3)C[C@@H]2C2CCCC2)ccc1C#N` [Example 18, (R)-6-(5-cyclopentyl-3-(3-methyl-4-oxo-3,4-dihydroquinazolin-6-yl)-4,5-dihydro-1H-pyrazol-1-yl)-2-methylnicotinonitrile] yielded an IC50 of 1.9 nM. To `Cc1nc(N2N=C(c3ccc4c(c3)NC(=O)CO4)C[C@@H]2C2CCCC2)ccc1C#N` [Example 19, (R)-6-(5-cyclopentyl-3-(3-oxo-3,4-dihydro-2H-benzo[b][1,4]oxazin-6-yl)-4,5-dihydro-1H-pyrazol-1-yl)-2-methylnicotinonitrile] belongs 10.8 nM; to `Cc1nc(N2N=C(c3ccc(S(N)(=O)=O)cc3)C[C@@H]2C2CCCC2)ccc1C#N` [Example 20, (R)-4-(1-(5-cyano-6-methylpyridin-2-yl)-5-cyclopentyl-4,5-dihydro-1H-pyrazol-3-yl)benzenesulfonamide], 19.7 nM; to `Cc1nc(N2N=C(c3cccc(S(C)(=O)=O)c3)C[C@@H]2C2CCCC2)ccc1C#N` [Example 21, (R)-6-(5-cyclopentyl-3-(3-(methylsulfonyl)phenyl)-4,5-dihydro-1H-pyrazol-1-yl)-2-methylnicotinonitrile], 105 nM. The figure for `CCS(=O)(=O)c1ccc(C2=NN(c3ccc(C#N)c(C)n3)[C@@H](C3CCCC3)C2)cc1` [Example 22, (R)-6-(5-cyclopentyl-3-(4-(ethylsulfonyl)phenyl)-4,5-dihydro-1H-pyrazol-1-yl)-2-methylnicotinonitrile] is 13.5 nM; for `Cc1cc(C2=NN(c3ccc(C#N)c(C)n3)[C@@H](C3CCCC3)C2)ccc1C#N` [Example 23, (R)-6-(3-(4-cyano-3-methylphenyl)-5-cyclopentyl-4,5-dihydro-1H-pyrazol-1-yl)-2-methylnicotinonitrile] it is 113 nM; for `Cc1cc(C2=NN(c3ccc(C#N)c(C)n3)[C@@H](C3CCCC3)C2)ccc1C(N)=O` [Example 24, (R)-4-(1-(5-cyano-6-methylpyridin-2-yl)-5-cyclopentyl-4,5-dihydro-1H-pyrazol-3-yl)-2-methylbenzamide] it is 25 nM. Compound `Cc1nc(N2N=C(c3ccc(NS(C)(=O)=O)cc3)C[C@@H]2C2CCCC2)ccc1C#N` [Example 25, (R)—N-(4-(1-(5-cyano-6-methylpyridin-2-yl)-5-cyclopentyl-4,5-dihydro-1H-pyrazol-3-yl)phenyl)methanesulfonamide] came in with an IC50 of 48.4 nM. The figure for `COc1cc(C2=NN(c3ccc(C#N)c(C)n3)[C@@H](C3CCCC3)C2)ccc1C#N` [Example 26, (R)-6-(3-(4-cyano-3-methoxyphenyl)-5-cyclopentyl-4,5-dihydro-1H-pyrazol-1-yl)-2-methylnicotinonitrile] is 85.3 nM. To `COc1cc(C2=NN(c3ccc(C#N)c(C)n3)[C@@H](C3CCCC3)C2)ccc1C(N)=O` [Example 27] belongs 5.2 nM; to `COc1cccc(C2=NN(c3ccc(C#N)c(C)n3)[C@@H](C3CCCC3)C2)n1` [Example 28, (R)-6-(5-cyclopentyl-3-(6-methoxypyridin-2-yl)-4,5-dihydro-1H-pyrazol-1-yl)-2-methylnicotinonitrile], 97.6 nM; to `Cc1nc(N2N=C(c3cccc(C(N)=O)c3)C[C@@H]2C2CCCC2)ccc1C#N` [Example 29, (R)-3-(1-(5-cyano-6-methylpyridin-2-yl)-5-cyclopentyl-4,5-dihydro-1H-pyrazol-3-yl)benzamide], 30.6 nM.

On to `Cc1nc(N2N=C(c3ccc4c(c3)CNC4=O)C[C@@H]2C2CCCC2)ccc1C#N` [Example 30, (R)-6-(5-cyclopentyl-3-(1-oxoisoindolin-5-yl)-4,5-dihydro-1H-pyrazol-1-yl)-2-methylnicotinonitrile], for which 9.7 nM corresponded to half-maximal inhibition (IC50).

Regarding `Cc1nc(N2N=C(c3ccc4c(c3)C(=O)NC4)C[C@@H]2C2CCCC2)ccc1C#N` [Example 31, (R)-6-(5-cyclopentyl-3-(3-oxoisoindolin-5-yl)-4,5-dihydro-1H-pyrazol-1-yl)-2-methylnicotinonitrile], the IC50 was 11.2 nM. In turn, `COC(=O)c1cc(C2=NN(c3ccc(C#N)c(C)n3)[C@@H](C3CCCC3)C2)ccc1S(C)(=O)=O` [Example 35, (R)-methyl 5-(1-(5-cyano-6-methylpyridin-2-yl)-5-cyclopentyl-4,5-dihydro-1H-pyrazol-3-yl)-2-(methylsulfonyl)benzoate] yielded an IC50 of 8.9 nM. For the compound `COc1ccc(C2=NN(c3ccc(C#N)c(C)n3)[C@@H](C3CCCC3)C2)cc1C(=O)O` [Example 36, (R)-5-(1-(5-cyano-6-methylpyridin-2-yl)-5-cyclopentyl-4,5-dihydro-1H-pyrazol-3-yl)-2-methoxybenzoic acid], the IC50 worked out at 225 nM. The figure for `COC(=O)c1ccc(C2=NN(c3ccc(C#N)c(C)n3)[C@@H](C3CCCC3)C2)c(OC)c1` [Example 38, (R)-methyl 4-(1-(5-cyano-6-methylpyridin-2-yl)-5-cyclopentyl-4,5-dihydro-1H-pyrazol-3-yl)-3-methoxybenzoate] is 82.2 nM. As to `COc1cc(C(=O)O)ccc1C1=NN(c2ccc(C#N)c(C)n2)[C@@H](C2CCCC2)C1` [Example 39, (R)-methyl 4-(1-(5-cyano-6-methylpyridin-2-yl)-5-cyclopentyl-4,5-dihydro-1H-pyrazol-3-yl)-3-methoxybenzoic acid], the IC50 was 7 nM. To `CCOc1cc(C2=NN(c3ccc(C#N)c(C)n3)[C@@H](C3CCCC3)C2)ccc1C(=O)O` [Example 41, (R)-4-(1-(5-cyano-6-methylpyridin-2-yl)-5-cyclopentyl-4,5-dihydro-1H-pyrazol-3-yl)-2-ethoxybenzoic acid] belongs 9.1 nM; to `CCOc1cc(C2=NN(c3ccc(C#N)c(C)n3)[C@@H](C3CCCC3)C2)ccc1C(N)=O` [Example 42, (R)-4-(1-(5-cyano-6-methylpyridin-2-yl)-5-cyclopentyl-4,5-dihydro-1H-pyrazol-3-yl)-2-ethoxybenzamide], 5 nM. To `COc1cccc(C2=NN(c3ccc(C#N)c(C)n3)[C@@H](C3CCCC3)C2)c1` [Example 43, (R)-6-(5-cyclopentyl-3-(3-methoxyphenyl)-4,5-dihydro-1H-pyrazol-1-yl)-2-methylnicotinonitrile] belongs 130 nM. To `Cc1nc(N2N=C(c3ccc4c(c3)CCC(=O)N4)C[C@@H]2C2CCCC2)ccc1C#N` [Example 45, (R)-6-(5-cyclopentyl-3-(2-oxo-1,2,3,4-tetrahydroquinolin-6-yl)-4,5-dihydro-1H-pyrazol-1-yl)-2-methylnicotinonitrile] belongs 20.6 nM; to `Cc1nc(N2N=C(c3ccc4c(c3)OCC(=O)N4)C[C@@H]2C2CCCC2)ccc1C#N` [Example 46, (R)-6-(5-cyclopentyl-3-(3-oxo-3,4-dihydro-2H-benzo[b][1,4]oxazin-7-yl)-4,5-dihydro-1H-pyrazol-1-yl)-2-methylnicotinonitrile], 42 nM. `Cc1nc(N2N=C(c3ccc4c(c3)CNC(=O)N4)C[C@@H]2C2CCCC2)ccc1C#N` [Example 47, (R)-6-(5-cyclopentyl-3-(2-oxo-1,2,3,4-tetrahydroquinazolin-6-yl)-4,5-dihydro-1H-pyrazol-1-yl)-2-methylnicotinonitrile] had an IC50 of 12 nM. The figure for `CCOc1nc(C2=NN(c3ccc(C#N)c(C)n3)[C@@H](C3CCCC3)C2)ccc1C(=O)O` [Example 51, (R)-6-(1-(5-cyano-6-methylpyridin-2-yl)-5-cyclopentyl-4,5-dihydro-1H-pyrazol-3-yl)-2-ethoxynicotinic acid] is 8.2 nM; for `COc1cc(C2=NN(c3ccc(C#N)c(C)n3)[C@@H](C3CCCC3)C2)ccc1O` [Example 52, (R)-6-(5-cyclopentyl-3-(4-hydroxy-3-methoxyphenyl)-4,5-dihydro-1H-pyrazol-1-yl)-2-methylnicotinonitrile] it is 62.3 nM.

(Values after patent US20120022058A1, “4,5-DIHYDRO-1H-PYRAZOLE COMPOUNDS AND THEIR PHARMACEUTICAL USES” (Pfizer Inc., priority 2009, published 2012).)
